pIC50: −log10 of the molar value.
Tested on: 997537-175-T-J1-PDC complex spheroid viability
Assay: Anticancer human tumor 997537-175-T-J1-PDC patient-derived colon adenocarcinoma cell line growth inhibition [GQUAD]
Settings: for pIC50: curve of first compound; for viability, T/C: stronger effect = lower value
Summary of the method: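 Tumor cells were grown as complex spheroids with HUVEC endothelial cells and mesenchymal stem cells as stroma. G-quadruplex stabilizers were combined with targeted agents over half-log dilutions from near the clinical Cmax, or from 10 microM.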

[1] = second compound 0.0316 µM, first compound 0.0316 µM
[2] = second compound 0.0316 µM, first compound 0.1 µM
[3] = second compound 0.0316 µM, first compound 0.316 µM
[4] = second compound 0.0316 µM, first compound 1 µM
[5] = second compound 0.0316 µM, first compound 3.16 µM
[6] = second compound 0.0316 µM, first compound 10 µM
[7] = second compound 0.1 µM, first compound 0.0316 µM
[8] = second compound 0.1 µM, first compound 0.1 µM
[9] = second compound 0.1 µM, first compound 0.316 µM
[10] = second compound 0.1 µM, first compound 1 µM
[11] = second compound 0.1 µM, first compound 3.16 µM
[12] = second compound 0.1 µM, first compound 10 µM
[13] = second compound 0.316 µM, first compound 0.0316 µM
[14] = second compound 0.316 µM, first compound 0.1 µM
[15] = second compound 0.316 µM, first compound 0.316 µM
[16] = second compound 0.316 µM, first compound 1 µM
[17] = second compound 0.316 µM, first compound 3.16 µM
[18] = second compound 0.316 µM, first compound 10 µM
[19] = second compound 1 µM, first compound 0.0316 µM
[20] = second compound 1 µM, first compound 0.1 µM
[21] = second compound 1 µM, first compound 0.316 µM
[22] = second compound 1 µM, first compound 1 µM
[23] = second compound 1 µM, first compound 3.16 µM
[24] = second compound 1 µM, first compound 10 µM
[25] = second compound 3.16 µM, first compound 0.0316 µM
[26] = second compound 3.16 µM, first compound 0.1 µM
[27] = second compound 3.16 µM, first compound 0.316 µM
[28] = second compound 3.16 µM, first compound 1 µM
[29] = second compound 3.16 µM, first compound 3.16 µM
[30] = second compound 3.16 µM, first compound 10 µM
[31] = second compound 10 µM, first compound 0.0316 µM
[32] = second compound 10 µM, first compound 0.1 µM
[33] = second compound 10 µM, first compound 0.316 µM
[34] = second compound 10 µM, first compound 1 µM
[35] = second compound 10 µM, first compound 3.16 µM
[36] = second compound 10 µM, first compound 10 µM
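Also: spheroids exposed to the agents for 7 days.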
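For viability, T/C in this document: 100% = DMSO vehicle control viability.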

For `COc1ncnc(C2CC2)c1-c1ncc2cnn(Cc3ccc(-c4nc(C(F)(F)F)cn4C(C)C)cc3)c2n1` + CN(C)c1ccc(Nc2c3ccc(NC(=O)CCN4CCCC4)cc3nc3cc(NC(=O)CCN4CCCC4)ccc23)cc1, the pIC50 (second compound 0.0316 µM) was less than 5.00, the pIC50 (second compound 0.1 µM) was less than 5.00 and the pIC50 (second compound 0.316 µM) was less than 5.00. It also gave a pIC50 (second compound 1 µM) of less than 5.00, a pIC50 (second compound 3.16 µM) of less than 5.00 and a pIC50 (second compound 10 µM) of less than 5.00. For the same molecule, the viability, T/C [1] was 99%, the viability, T/C [2] was 88.7% and the viability, T/C [3] was 79.4%. For the same molecule, the viability, T/C [4] was 77.8%, the viability, T/C [5] was 77.8% and the viability, T/C [6] was 97.8%. It also gave a viability, T/C [7] of 91.4%, a viability, T/C [8] of 80.4% and a viability, T/C [9] of 82.2%. The viability, T/C [10] was 62.4%, the viability, T/C [11] was 81.4% and the viability, T/C [12] was 76.7%. For the same molecule, the viability, T/C [13] was 73%, the viability, T/C [14] was 85.5% and the viability, T/C [15] was 86.5%. For the same molecule, the viability, T/C [16] was 81.1%, the viability, T/C [17] was 87.5% and the viability, T/C [18] was 82.1%. The viability, T/C [19] was 69.2%, the viability, T/C [20] was 88.2% and the viability, T/C [21] was 81.5%. For the same molecule, the viability, T/C [22] was 79%, the viability, T/C [23] was 85.7% and the viability, T/C [24] was 82.1%. It also gave a viability, T/C [25] of 74.5%, a viability, T/C [26] of 87.6% and a viability, T/C [27] of 86.6%. The viability, T/C [28] was 84.3%, the viability, T/C [29] was 86.4% and the viability, T/C [30] was 91.8%. It also gave a viability, T/C [31] of 75.5%, a viability, T/C [32] of 81.7% and a viability, T/C [33] of 86.8%. The viability, T/C [34] was 77.2%, the viability, T/C [35] was 89% and the viability, T/C [36] was 84.7%.
Molecule `Cn1ncnc1[C@H]1c2n[nH]c(=O)c3cc(F)cc(c23)N[C@@H]1c1ccc(F)cc1` + Cc1cnc(CNC(=O)c2c(=O)c3ccc(N4CCCN(C)CC4)nc3n3c2sc2ccccc23)cn1 has a pIC50 (second compound 0.0316 µM) of less than 6.50, a pIC50 (second compound 0.1 µM) of less than 6.50 and a pIC50 (second compound 0.316 µM) of less than 6.50. It also gave a pIC50 (second compound 1 µM) of less than 6.50, a pIC50 (second compound 3.16 µM) of less than 6.50 and a pIC50 (second compound 10 µM) of less than 6.50. The viability, T/C (second compound 0.0316 µM, first compound 0.000999 µM) was 96.5%, the viability, T/C (second compound 0.0316 µM, first compound 0.00316 µM) was 90.8% and the viability, T/C (second compound 0.0316 µM, first compound 0.00999 µM) was 90.8%. It also gave a viability, T/C [1] of 86.6%, a viability, T/C (second compound 0.0316 µM, first compound 0.0999 µM) of 76.9% and a viability, T/C [3] of 87.4%. For the same molecule, the viability, T/C (second compound 0.1 µM, first compound 0.000999 µM) was 106%, the viability, T/C (second compound 0.1 µM, first compound 0.00316 µM) was 79.2% and the viability, T/C (second compound 0.1 µM, first compound 0.00999 µM) was 106%. The viability, T/C [7] was 52.1%, the viability, T/C (second compound 0.1 µM, first compound 0.0999 µM) was 89.6% and the viability, T/C [9] was 85%. For the same molecule, the viability, T/C (second compound 0.316 µM, first compound 0.000999 µM) was 107%, the viability, T/C (second compound 0.316 µM, first compound 0.00316 µM) was 93.8% and the viability, T/C (second compound 0.316 µM, first compound 0.00999 µM) was 86.4%. It also gave a viability, T/C [13] of 80.8%, a viability, T/C (second compound 0.316 µM, first compound 0.0999 µM) of 98.7% and a viability, T/C [15] of 85.5%. For the same molecule, the viability, T/C (second compound 1 µM, first compound 0.000999 µM) was 89.4%, the viability, T/C (second compound 1 µM, first compound 0.00316 µM) was 89.9% and the viability, T/C (second compound 1 µM, first compound 0.00999 µM) was 94.4%. The viability, T/C [19] was 116%, the viability, T/C (second compound 1 µM, first compound 0.0999 µM) was 95% and the viability, T/C [21] was 108%. For the same molecule, the viability, T/C (second compound 3.16 µM, first compound 0.000999 µM) was 104%, the viability, T/C (second compound 3.16 µM, first compound 0.00316 µM) was 86.9% and the viability, T/C (second compound 3.16 µM, first compound 0.00999 µM) was 96.2%. The viability, T/C [25] was 100%, the viability, T/C (second compound 3.16 µM, first compound 0.0999 µM) was 94.4% and the viability, T/C [27] was 106%. It also gave a viability, T/C (second compound 10 µM, first compound 0.000999 µM) of 87.2%, a viability, T/C (second compound 10 µM, first compound 0.00316 µM) of 98.9% and a viability, T/C (second compound 10 µM, first compound 0.00999 µM) of 97.7%. It also gave a viability, T/C [31] of 103%, a viability, T/C (second compound 10 µM, first compound 0.0999 µM) of 96.4% and a viability, T/C [33] of 98.3%.
With `CC(=O)O[C@H]1C(=O)[C@@]2(C)[C@H]([C@H](OC(=O)c3ccccc3)[C@]3(O)C[C@H](OC(=O)[C@H](O)[C@@H](NC(=O)c4ccccc4)c4ccccc4)C(C)=C1C3(C)C)[C@]1(OC(C)=O)CO[C@@H]1C[C@@H]2O` + CN(C)c1ccc(Nc2c3ccc(NC(=O)CCN4CCCC4)cc3nc3cc(NC(=O)CCN4CCCC4)ccc23)cc1 the pIC50 (second compound 0.0316 µM) was 7.10, the pIC50 (second compound 0.1 µM) was 7.17 and the pIC50 (second compound 0.316 µM) was 7.13. The pIC50 (second compound 1 µM) was 7.27, the pIC50 (second compound 3.16 µM) was greater than 7.50 and the pIC50 (second compound 10 µM) was 7.23. For the same molecule, the viability, T/C [1] was 75.2%, the viability, T/C [2] was 43.6% and the viability, T/C [3] was 28.1%. For the same molecule, the viability, T/C [4] was 21.5%, the viability, T/C [5] was 32.2% and the viability, T/C [6] was 29.4%. It also gave a viability, T/C [7] of 67.3%, a viability, T/C [8] of 40.9% and a viability, T/C [9] of 36.9%. The viability, T/C [10] was 21.1%, the viability, T/C [11] was 30.7% and the viability, T/C [12] was 34.9%. The viability, T/C [13] was 78.3%, the viability, T/C [14] was 36.5% and the viability, T/C [15] was 34.5%. It also gave a viability, T/C [16] of 19.4%, a viability, T/C [17] of 16.6% and a viability, T/C [18] of 21.1%. The viability, T/C [19] was 71.6%, the viability, T/C [20] was 9.98% and the viability, T/C [21] was 35.1%. For the same molecule, the viability, T/C [22] was 18.1%, the viability, T/C [23] was 29.6% and the viability, T/C [24] was 24.8%. It also gave a viability, T/C [25] of 37.7%, a viability, T/C [26] of 45.5% and a viability, T/C [27] of 31.9%. The viability, T/C [28] was 18.1%, the viability, T/C [29] was 20.1% and the viability, T/C [30] was 41.8%. For the same molecule, the viability, T/C [31] was 72%, the viability, T/C [32] was 28.8% and the viability, T/C [33] was 34.4%. For the same molecule, the viability, T/C [34] was 35.7%, the viability, T/C [35] was 29.8% and the viability, T/C [36] was 27.3%.

Reference: PubChem BioAssay AID2060487 (Molecular Pharmacology Branch, DTP, NCI, 2025)
